Measured values published in patent US10695279B2, “Peptide having skin-whitening activity and use thereof” (CAREGEN CO., LTD., priority 2017, dated 2020).

Key:
tyrosinase [1] = assay: Protein expression of melanin-forming factors (western blot): tyrosinase; format: cell-based, mouse; conditions: B16F10, α-MSH (200 ng/ml), peptide 50, 100 uM, 72 hours, FIG. 7
MITF [2] = conditions: B16F10, α-MSH (200 ng/ml), peptide 100, 200 uM, 24 hours, PCR; FIG. 6
Description: (§1) After melanin-forming cells (B16F10 cell line) were incubated in 6-well culture plates for 24 hours, the cells were treated with α-MSH (200 ng/ml), arbutin (500 uM), or the present peptide at different concentrations (100, 200 uM). After RNA was extracted from the cells incubated for 24 hours, cDNA was prepared. Then, PCR was conducted using the primers shown in Table 2 below, which are specific to MITF, tyrosinase, and TRP1, respectively, as melanogenesis-involved factors, and then the change in the expression of each gene was observed.

TRP1 = conditions: B16F10, α-MSH (200 ng/ml), peptide 100, 200 uM, 24 hours, PCR; FIG. 6
Description: as §1

[3] = system: human keratinocyte line (HaCaT); conditions: melanosomes isolated from B16F10, peptide 10, 50, 100, 200 uM, 48 hours, FIG. 10
Description: After human keratinocyte line (HaCaT) was cultured in 6-well culture plates for 24 hours, the melanosomes isolated from mouse melanoma cell line (B16F10) were pretreated for 3 hours in serum-free culture medium, and then the cells were treated with the present peptide at different concentrations (10, 50, 100, 200 uM) or arbutin (200 uM) as a positive control, followed by incubation for 48 hours. Then, the plates were washed with PBS to remove un-transferred melanosomes, and 1 N NaOH was added to pellets, which had been obtained through cell collection and precipitation. Then, 1 M NaOH was added to the pellets, and the pellets were dissolved in an oven at 80° C., and then the OD value at 490 nm was measured.

[4] = system: human keratinocyte line (HaCaT); conditions: peptide 100, 200 uM, 24 hours, Vybrant Phagocytosis Assay Kit, FIG. 12
Description: After human keratinocyte line (HaCaT) was cultured in 24-well culture plates for 24 hours, the cells were treated with the present peptide at different concentrations (100, 200 uM) or arbutin (200 uM) as a positive control in 0.5% FBS culture medium, followed by incubation for 24 hours. Thereafter, the inhibition of phagocytosis of the human keratinocyte line was observed using the Vybrant Phagocytosis Assay Kit (V-6694).

[5] = system: melanin-forming cells (B16F10 cell line); conditions: B16F10, α-MSH (200 ng/ml), peptide 50, 100, 200 uM, 72 hours; dose-dependent, **P≤0.01; FIGS. 2a and 2b
Description: After melanin-forming cells (B16F10 cell line) dispensed in 6-well culture plates were incubated in a 37° C. incubator for 24 hours, the medium for each plate was removed and then replaced with new medium (2% serum medium). Then, the cells were treated with α-MSH (200 ng/ml), arbutin (200, 500 uM), or the peptide of the present invention at different concentrations (50, 100, 200 uM). Thereafter, the cells were incubated for 72 hours, and then the culture medium was removed. The cells were detached and then transferred into a 1.5 ml tube, followed by centrifugation at 13,000 rpm for 3 minutes. The supernatant was removed, and cell pellets were collected to observe melanin. Then, 150 μl of 2 M NaOH was added to the cell pellets to lyse intracellular melanin at 60° C. for 30 minutes. Then, 100 μl of the supernatant obtained from the lysis was added into each well of a 96-well plate, and the absorbance at 490 nm was measured.

[6] = system: melanin-forming cells (B16F10 cell line); conditions: B16F10, α-MSH (200 ng/ml), peptide 50, 100, 200 uM, 72 hours; dose-dependent; FIG. 3
Description: After melanin-forming cells (B16F10 cell line) dispensed in 6-well culture plates were incubated in a 37° C. incubator for 24 hours, the medium for each plate was removed and replaced with new medium (10% serum medium). Then, the cells were treated with α-MSH (200 ng/ml), arbutin (500 uM), or the peptide of the present invention at different concentrations (50, 100, 200 uM). The cells were incubated for 72 hours, and then the formed melanin was observed through an optical microscope.

tyrosinase [7] = assay: Gene expression of melanin-forming factors (PCR): tyrosinase; format: cell-based, mouse; conditions: B16F10, α-MSH (200 ng/ml), peptide 100, 200 uM, 24 hours, FIG. 6
tyrosinase [8] = assay: Measurement of tyrosinase expression level (fluorescence microscope, tyrosinase antibody); format: cell-based, mouse; conditions: B16F10, α-MSH (200 ng/ml), peptide 50, 100 uM, 48 hours; dose-dependent; FIG. 5
Description: Then, the cells were incubated for 48 hours, and the intracellular expression protein was stained with FITC-conjugated tyrosinase antibody (Santa Cruz biotechnology, USA) and FITC-conjugated secondary IgG antibody (Santa Cruz biotechnology, USA).

[9] = system: human keratinocyte line (HaCaT); conditions: melanosomes isolated from B16F10, peptide 10, 50, 100, 200 uM, 48 hours, Fontana-Masson staining, dose-dependent, FIG. 11
Description: After human keratinocyte line (HaCaT) was cultured in 6-well culture plates for 24 hours, the melanosomes isolated from mouse melanoma cell line (B16F10) were pretreated for 3 hours in serum-free culture medium. Then, the cells were treated with the present peptide at different concentrations (10, 50, 100, 200 uM) or arbutin (200 uM) as a positive control, followed by incubation for 48 hours. Then, the plates were washed with PBS to remove un-transferred melanosomes, and subjected to Fontana-Masson staining to observe the inhibition of the melanosome phagocytosis by keratinocytes through a microscope.

C57BL/6 mice = assay: In vivo whitening effect, application to the tail; conditions: C57BL/6 mice tail skin, liposomal peptide 5,000 ppm once a day, about 8 weeks, F&M staining, versus control group; FIGS. 14b and 14c
Description: Liposomal peptide (5,000 ppm) or arbutin as a positive control was applied to the tail of 8-week-old C57BL/6 mice once a day, and the experiment was conducted for about 8 weeks. After the completion of the experiment, the mice were sacrificed to extract tail skin tissues, which were then embedded in paraffin to manufacture paraffin blocks. Then, the paraffin blocks were made into paraffin sections and morphologically observed through Fontana-Masson staining.

tyrosinase [10] = target: T1, tyrosinase (Mus musculus, UniProt P11344); assay: Measurement of tyrosinase activity in cells (L-dopa, absorbance at 475 nm); format: cell-based; conditions: B16F10, α-MSH (200 ng/ml), peptide 50, 100, 200 uM, 72 hours; dose-dependent, **P≤0.01; FIG. 4
T1 construct: endogenous in cells; host or cells: B16F10 mouse melanoma cells
T1 sequence (P11344 19-533): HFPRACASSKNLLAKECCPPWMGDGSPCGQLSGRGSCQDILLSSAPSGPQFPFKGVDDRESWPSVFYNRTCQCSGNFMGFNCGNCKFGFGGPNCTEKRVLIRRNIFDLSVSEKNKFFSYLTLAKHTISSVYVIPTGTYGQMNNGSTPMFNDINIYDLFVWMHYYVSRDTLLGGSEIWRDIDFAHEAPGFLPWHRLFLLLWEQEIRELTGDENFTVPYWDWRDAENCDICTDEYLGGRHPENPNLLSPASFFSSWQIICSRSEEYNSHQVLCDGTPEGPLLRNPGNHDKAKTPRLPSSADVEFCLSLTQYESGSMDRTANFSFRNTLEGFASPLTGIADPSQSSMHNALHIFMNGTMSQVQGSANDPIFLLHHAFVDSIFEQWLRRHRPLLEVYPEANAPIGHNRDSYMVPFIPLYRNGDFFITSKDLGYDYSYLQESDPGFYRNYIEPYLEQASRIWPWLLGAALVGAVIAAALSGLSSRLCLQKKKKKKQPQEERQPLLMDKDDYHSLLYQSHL
Description: The 6-well culture plates were loaded on ice and washed with cool PBS, and then 300 μl of 0.1 M sodium phosphate buffer (pH 6.8 lysis buffer) containing 1% Triton X-100 was added. The cells were collected in a 1.5 mL tube, and then cell membranes were disrupted by repeating rapid-freezing at […] and thawing, five times. Then, the tube was centrifuged at 13,000 rpm for 20 minutes, and then the supernatant was collected in another 1.5 mL tube, and the protein content of the samples was quantified. The samples were diluted to have the same protein concentration and then dispensed in three wells each in a 96-well culture plate, and then 20 μl of 10 mM L-dopa was added, followed by incubation at 37° C. for 1 hour.

[11] = system: human keratinocyte line (HaCaT); conditions: melanosomes pretreated 48 hours, peptide 100, 200 uM, dose-dependent, FIG. 13
Description: After human keratinocyte line (HaCaT) was cultured in 6-well culture plates for 24 hours, melanosomes isolated from mouse melanoma cell line (B16F10) were pretreated for 48 hours in serum-free culture medium. The plates were washed with PBS to remove un-transferred melanosomes, and then the cells were treated with the peptide at different concentrations (100, 200 uM) or arbutin (200 uM) as a positive control, and TGFβ-1, followed by incubation for 48 hours. In order to measure the degradation of melanosomes phagocytized into keratinocytes, 1 M NaOH was added to pellets obtained by keratinocyte collection and precipitation, and the pellets were dissolved in an oven at 80° C., and then the OD value at 490 nm was measured.

CREB = conditions: B16F10, α-MSH (200 ng/ml), peptide 50, 100 uM, 10 minutes, western blot; FIG. 8
Description: (§2) After melanin-forming cells (B16F10 cell line) were incubated in 6-well culture plates for 24 hours, the cells were treated with α-MSH (200 ng/ml) or the present peptide at different concentrations (50, 100 uM).

MITF [12] = conditions: B16F10, α-MSH (200 ng/ml), peptide 50, 100 uM, 72 hours, western blot; FIG. 7
Description: as §2

PAR2 = conditions: HaCaT, trypsin-induced, peptide 100, 200 uM, 16 hours, PCR; FIG. 9
Description: After a human keratinocyte line (HaCaT) was incubated in 6-well culture plates for 24 hours, the cells were treated with trypsin as an activity-inducing material and the present peptide at different concentrations (100, 200 uM). After RNA was extracted from the cells incubated for 16 hours, cDNA was prepared.
PCR was conducted using a primer pair (see table 3 below) specific to PAR2, which is one of surface receptors of keratocytes activated by a trypsin action, and then the change in the expression of each gene was observed.

Substance: Feruloyl-Ile-Trp-Ser-Leu-Asp-Thr-Gln-Tyr-Gly-Gly-Arg-Gly-Asp-COOH
- tyrosinase protein expression (tyrosinase [1]): MITF and tyrosinase protein expression inhibitory effects
- MITF gene expression (MITF [2]): strong effects of inhibiting MITF, tyrosinase, and TRP1 genes
- TRP1 gene expression (TRP1): strong effects of inhibiting MITF, tyrosinase, and TRP1 genes
- amount of melanosomes transferred into keratinocytes (absorbance) [3]: phagocytosis inhibitory effect
- amount of bioparticles transferred into keratinocytes (fluorescent microscopic image analysis) [4]: distinctive phagocytosis inhibitory effect
- melanin production [5]: melanogenesis inhibitory effect
- melanin formation observed through cell morphology [6]: melanogenesis inhibitory effect
- tyrosinase gene expression (tyrosinase [7]): strong effects of inhibiting MITF, tyrosinase, and TRP1 genes
- tyrosinase expression level (tyrosinase [8]): tyrosinase expression inhibitory effect
- amount of melanosomes transferred into keratinocytes (optical microscope image analysis) [9]: phagocytosis inhibitory effect
- amount of melanin distributed in the basal layer of the epidermis (C57BL/6 mice): significantly smaller than that in the control group
- tyrosinase activity in cells (tyrosinase [10]): tyrosinase activity inhibitory effect
- degradation of melanosomes transferred into keratinocytes [11]: promote the degradation of the melanosomes transferred into the keratinocytes
- degree of phosphorylation of CREB (CREB): CREB phosphorylation inhibitory effect
- MITF protein expression (MITF [12]): MITF and tyrosinase protein expression inhibitory effects
- PAR2 gene expression (PAR2): reduced the expression of PAR2 gene in a dose-dependent manner
